The subject of test [1] is CAL-120. The conditions noted are these: 72 h. The method in brief:
(§1)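 Breast cancer cell lines in 20 µl suspension were added to 384-well plates already holding compound at 5 concentrations, spaced in 10-fold steps across a compound-specific 10,000-fold range, and incubated for 72 h. CellTox Green fluorescence (485/520 nm) was read first to measure cell death, followed by CellTiter-Glo luminescence for viability after 10 min at room temperature. Each plate was normalised to 0.1 % DMSO and a positive kill control. EC50 values came from dose-response curve fits and were censored at the top concentration.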

Another test relates to BT-474. Kind of test: normalised response (% of control), CellTiter-Glo; higher = more viable cells (100 = DMSO, 0 = benzethonium chloride kill control). The note with it: incubation time: 72 h. The method in brief: (§2)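 Plates were normalised with 0.1 % DMSO as 100 and a positive kill control as 0. Breast cancer cell lines in 20 µl suspension had been seeded into 384-well plates with compound at 5 concentrations in 10-fold steps over a compound-specific 10,000-fold range, incubated 72 h, and read for CellTox Green fluorescence (485/520 nm) followed by CellTiter-Glo luminescence. Each value is the normalised signal at a single concentration.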
A general note: Cellular ATP, detected with luciferase, serves as a proxy for viable cell number.

In another test the test system is BT-549. Described as above. The note with it: incubation time: 72 h. The method in brief: as §2
For a further test, the system named is MDA-MB-468. The test is described as above. The note with it: incubation time: 72 h. The method in brief:
as §2

Another test deals with HCC1143. The test is described as above. The conditions noted are these: incubation time: 72 h. The method in brief: as §2
The test system of a further test is Hs578T. The test is described as above. The note with it: incubation time: 72 h. The method in brief:
as §2

The next test relates to HDQ-P1. The test is described as above. The note with it: incubation time: 72 h. The method in brief: as §2
In another test the test system is CAL-85-1. The description is as above. The note with it: incubation time: 72 h. The method in brief:
as §2

Test [2] relates to CAL-120. The test is described as above. The note with it: incubation time: 72 h. The method in brief:
as §2

The subject of test [3] is CAL-51. The test is described as above. The note with it: incubation time: 72 h. The method in brief: as §2
For test [4], the system named is SK-BR-3. Described as above. The conditions noted are these: incubation time: 72 h. The method in brief: as §2
Test [5] concerns HCC1937. Described as above. The note with it: incubation time: 72 h. The method in brief: as §2
The subject of test [6] is MFM-223. The test is described as above. The conditions noted are these: incubation time: 72 h. The method in brief: as §2
A further test deals with DU-4475. Described as above. The conditions noted are these: incubation time: 72 h. The method in brief:
as §2

The subject of a further test is MDA-MB-436. The test is described as above. The note with it: incubation time: 72 h. The method in brief:
as §2

Test [7] deals with MDA-MB-453. The description is as above. The note with it: incubation time: 72 h. The method in brief: as §2
A further test has as its system MDA-MB-231. The test is described as above. The note with it: incubation time: 72 h. The method in brief: as §2
The next test has as its system HCC1599. The test is described as above. The conditions noted are these: incubation time: 72 h. The method in brief:
as §2

In test [8] the test system is CAL-51. The conditions noted are these: 72 h. The method in brief: as §1
Test [9] deals with SK-BR-3. The note with it: 72 h. The method in brief: as §1
In test [10] the test system is HCC1937. The note with it: 72 h. The method in brief: as §1
The subject of test [11] is MFM-223. The note with it: 72 h. The method in brief: as §1
Test [12] deals with MDA-MB-453. The note with it: 72 h. The method in brief: as §1

Molecules are shown by their SMILES.

`C[C@]12C=CC(=O)C=C1CC[C@@H]1[C@@H]2C(=O)C[C@@]2(C)[C@H]1CC[C@]2(O)C(=O)CO` [Prednisone]: in the test on CAL-120 [1], the “EC50, CellTiter-Glo” value stood at 8.39 µM.
Consider `C[C@]12C=CC(=O)C=C1CC[C@@H]1[C@@H]2C(=O)C[C@@]2(C)[C@H]1CC[C@]2(O)C(=O)CO` [Prednisone] (10000 nM), for which the normalised response with BT-474 stood at 105%; in the test with BT-549 it was 94.6%; with MDA-MB-468, 104%; in the test with HCC1143, 103%; with Hs578T, 102%; with HDQ-P1, 98.6%. Further, the normalised response in the test on CAL-85-1 was found to be 98.6%; in the test on CAL-120 [2] it was 49%; in the test with CAL-51 [3] it was 118%; with SK-BR-3 [4] it was 107%; in the test on HCC1937 [5], 95.4%; with MFM-223 [6], 97.4%. Also, the normalised response in the test with DU-4475 amounted to 107%; in the test on MDA-MB-436 it was 98.2%; with MDA-MB-453 [7], 100%; in the test on MDA-MB-231 it was 100%; in the test on HCC1599, 102%.
With `CO[C@H]1C[C@@H]2CC[C@@H](C)[C@@](O)(O2)C(=O)C(=O)N2CCCC[C@H]2C(=O)O[C@H]([C@H](C)C[C@@H]2CC[C@@H](O)[C@H](OC)C2)CC(=O)[C@H](C)/C=C(\C)[C@@H](O)[C@@H](OC)C(=O)[C@H](C)C[C@H](C)/C=C/C=C/C=C/1C` [Sirolimus] (100 nM), the normalised response with BT-474 is 78.8%; in the test with BT-549, 54.1%; in the test with MDA-MB-468, 53.4%; in the test on HCC1143 it was 62.4%; with Hs578T, 68.8%; with HDQ-P1, 73.4%. The normalised response with CAL-85-1 was 60.5%; in the test with CAL-120 [2], 64.5%; in the test with CAL-51 [3], 61.3%; in the test on SK-BR-3 [4], 57.4%; in the test with HCC1937 [5], 66.9%; in the test on MFM-223 [6] it was 64.9%. Besides, the normalised response stood at 72.8% with DU-4475; 73.9% with MDA-MB-436; 53.2% with MDA-MB-453 [7]; 81.2% with MDA-MB-231; 95.8% in the test on HCC1599.
In the case of `CN1CCN(c2nc(C3=C(c4c[nH]c5ccccc45)C(=O)NC3=O)c3ccccc3n2)CC1` [Sotrastaurin] (10000 nM), the normalised response was determined as 103% in the test on BT-474; 97.9% with BT-549; 78.6% with MDA-MB-468; 94.2% in the test with HCC1143; 108% in the test with Hs578T; 86.2% with HDQ-P1. Also, the normalised response in the test with CAL-85-1 came to 112%; in the test with CAL-120 [2], 82.7%; with CAL-51 [3] it was 92.5%; with SK-BR-3 [4] it was 67.5%; in the test on HCC1937 [5] it was 118%; in the test with MFM-223 [6], 67.4%. The normalised response in the test with DU-4475 stood at 76.4%; in the test on MDA-MB-436, 107%; in the test with MDA-MB-453 [7] it was 108%; in the test on MDA-MB-231, 107%; with HCC1599, 82.8%.
`CC/C(=C(\c1ccccc1)c1ccc(OCCN(C)C)cc1)c1ccccc1` [Tamoxifen]: the “EC50, CellTiter-Glo” value in the test with CAL-120 [1] was > 10 µM; in the test on CAL-51 [8], 0.233 µM; with SK-BR-3 [9], > 10 µM; in the test on HCC1937 [10] it was > 10 µM; with MFM-223 [11], 3.37 µM; with MDA-MB-453 [12], 2.56 µM.
As to `CC/C(=C(\c1ccccc1)c1ccc(OCCN(C)C)cc1)c1ccccc1` [Tamoxifen] (10000 nM), the normalised response with BT-474 is 69.3%; in the test with BT-549, 78.2%; in the test on MDA-MB-468, 77%; with HCC1143, 95.7%; in the test on Hs578T, 87.8%; in the test on HDQ-P1 it was 99.1%. In addition, the normalised response with CAL-85-1 amounted to 81.6%; in the test with CAL-120 [2], 90%; in the test with CAL-51 [3], 71.7%; with SK-BR-3 [4], 53.4%; with HCC1937 [5], 51.8%; in the test with MFM-223 [6], 58.2%. Besides, the normalised response amounted to 85.7% with DU-4475; 86.9% in the test with MDA-MB-436; 23.5% in the test on MDA-MB-453 [7]; 60.8% with MDA-MB-231; 73% in the test with HCC1599.
For the compound `Cn1nnc2c(C(N)=O)ncn2c1=O` [Temozolomide] (10000 nM), the normalised response in the test on BT-474 was determined as 91.2%; in the test with BT-549, 100%; in the test with MDA-MB-468, 99.1%; in the test on HCC1143 it was 95.1%; in the test on Hs578T, 95.7%; with HDQ-P1, 95.1%. Moreover, the normalised response amounted to 99.2% with CAL-85-1; 95.2% with CAL-120 [2]; 106% with CAL-51 [3]; 93.9% in the test on SK-BR-3 [4]; 91.6% with HCC1937 [5]; 101% in the test on MFM-223 [6]. The normalised response in the test with DU-4475 was found to be 91.1%; with MDA-MB-436, 98%; in the test with MDA-MB-453 [7], 97.9%; in the test on MDA-MB-231, 91.2%; in the test on HCC1599 it was 108%.
Consider `CC[C@@H]1C(=O)N(C)c2cnc(Nc3ccc(C(=O)N[C@H]4CC[C@H](N5CCN(CC6CC6)CC5)CC4)cc3OC)nc2N1C(C)C` [Volasertib] (1000 nM), for which the normalised response in the test on BT-474 came to 66.4%; with BT-549 it was 29.1%; with MDA-MB-468 it was 48%; in the test with HCC1143 it was 41.3%; in the test on Hs578T, 25.4%; in the test with HDQ-P1, 64.7%. Besides, the normalised response in the test on CAL-85-1 turned out to be 48.6%; in the test with CAL-120 [2], 49.1%; in the test on CAL-51 [3], 26.9%; in the test with SK-BR-3 [4], 27.2%; in the test with HCC1937 [5], 66.8%; with MFM-223 [6], 51.2%. Also, the normalised response in the test with DU-4475 amounted to 66.2%; with MDA-MB-436 it was 65.6%; in the test on MDA-MB-453 [7], 62.4%; in the test with MDA-MB-231, 73%; in the test with HCC1599, 28.3%.
